{
  "source": "patent US10780090B2",
  "about": "“Heteroaryl compounds useful as inhibitors of SUMO activating enzyme” (Millennium Pharmaceuticals, Inc., priority 2014, dated 2020)",
  "target": "recombinant human SAE enzyme (Homo sapiens (Human), UniProt Q9UBT2)",
  "sequence (Q9UBT2 whole entry)": "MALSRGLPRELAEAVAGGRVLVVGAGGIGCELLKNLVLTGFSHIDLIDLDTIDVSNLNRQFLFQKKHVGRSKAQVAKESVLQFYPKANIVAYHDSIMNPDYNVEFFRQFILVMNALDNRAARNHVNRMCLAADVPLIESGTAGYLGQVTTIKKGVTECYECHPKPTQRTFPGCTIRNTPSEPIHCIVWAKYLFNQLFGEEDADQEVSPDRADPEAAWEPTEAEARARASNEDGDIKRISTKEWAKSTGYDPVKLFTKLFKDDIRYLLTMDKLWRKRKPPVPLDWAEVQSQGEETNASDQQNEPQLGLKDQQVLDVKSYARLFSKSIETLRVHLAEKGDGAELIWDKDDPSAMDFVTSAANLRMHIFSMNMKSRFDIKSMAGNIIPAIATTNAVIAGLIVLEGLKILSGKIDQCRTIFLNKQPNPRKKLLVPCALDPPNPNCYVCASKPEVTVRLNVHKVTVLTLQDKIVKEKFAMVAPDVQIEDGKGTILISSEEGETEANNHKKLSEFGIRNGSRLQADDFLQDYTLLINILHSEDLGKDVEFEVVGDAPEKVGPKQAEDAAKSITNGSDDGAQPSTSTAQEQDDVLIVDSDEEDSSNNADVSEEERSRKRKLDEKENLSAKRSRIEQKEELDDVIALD",
  "sequence (Q9UBE0 whole entry partner)": "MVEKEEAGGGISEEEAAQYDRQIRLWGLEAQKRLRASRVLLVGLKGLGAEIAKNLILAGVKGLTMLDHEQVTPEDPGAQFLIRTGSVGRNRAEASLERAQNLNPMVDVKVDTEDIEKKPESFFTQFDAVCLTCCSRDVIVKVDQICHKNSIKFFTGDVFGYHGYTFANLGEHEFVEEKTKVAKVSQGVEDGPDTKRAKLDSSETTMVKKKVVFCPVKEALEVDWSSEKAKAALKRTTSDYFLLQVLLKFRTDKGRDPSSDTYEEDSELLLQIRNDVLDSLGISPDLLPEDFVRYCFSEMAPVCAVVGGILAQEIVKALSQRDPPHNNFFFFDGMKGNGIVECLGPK",
  "experiment": "SAE HTRF enzyme assay",
  "type": "biochemical",
  "details": "for Percent Inhibition: SAE inhibition at compound concentration 0.111 μM; for IC50: SAE inhibition, class symbols, legend in nM",
  "in_short": "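0.11 nM SAE incubated with 0.5 μM ATP, 0.01 μM Ubc9-GST and 0.125 μM Sumo-Flag in HEPES pH 7.5, MgCl2, GSH, BSA, ±inhibitor, 105 min at 24° C. EDTA stop; Eu-cryptate anti-Flag/XL-APC anti-GST HTRF read after 2 h. Values given as single-concentration % inhibition or IC50.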",
  "data": [
    {"compound": "NS(=O)(=O)OC[C@H]1C[C@@H](Nc2ncncc2C(=O)c2cc([C@@H]3OCC4(CC4)c4ccccc43)cs2)C[C@@H]1O", "note": "(single isomer, unassigned) [I-281a, [(1R,2S,4R)-2-hydroxy-4-{[5-({4-[(1′R)-1′H-spiro[cyclopropane-1,4′-isochromen]-1′-yl]-2-thienyl}carbonyl)pyrimidin-4-yl]amino}cyclopentyl]methyl sulfamate or [(1R,2S,4R)-2-hydroxy-4-{[5-({4-[(1′S)-1′H-spiro[cyclopropane-1,4′-isochromen]-1′-yl]-2-thienyl}carbonyl)pyrimidin-4-yl]amino}cyclopentyl]methyl sulfamate]", "values": [
      {"measurement": "Percent Inhibition", "value": 74, "unit": "%"},
      {"measurement": "IC50", "value": "10 to 100", "unit": "nM"}
    ]},
    {"compound": "NS(=O)(=O)OC[C@H]1C[C@@H](Nc2ncncc2C(=O)c2cc([C@@H]3OCC4(CC4)c4ccccc43)cs2)C[C@@H]1O", "note": "(single isomer, unassigned) [I-281b, [(1R,2S,4R)-2-hydroxy-4-{[5-({4-[(1′R)-1′H-spiro[cyclopropane-1,4′-isochromen]-1′-yl]-2-thienyl}carbonyl)pyrimidin-4-yl]amino}cyclopentyl]methyl sulfamate or [(1R,2S,4R)-2-hydroxy-4-{[5-({4-[(1′S)-1′H-spiro[cyclopropane-1,4′-isochromen]-1′-yl]-2-thienyl}carbonyl)pyrimidin-4-yl]amino}cyclopentyl]methyl sulfamate]", "values": [
      {"measurement": "Percent Inhibition", "value": 99, "unit": "%"},
      {"measurement": "IC50", "value": "< 10", "unit": "nM"}
    ]},
    {"compound": "NS(=O)(=O)OC[C@H]1C[C@@H](Nc2ncncc2C(=O)c2cc([C@@H]3OCCc4ccc(Cl)cc43)c(Cl)s2)C[C@@H]1O", "note": "(single isomer, unassigned) [I-282a, [(1R,2S,4R)-4-{[5-({5-chloro-4-[(1R)-7-chloro-3,4-dihydro-1H-isochromen-1-yl]-2-thienyl}carbonyl)pyrimidin-4-yl]amino}-2-hydroxycyclopentyl]methyl sulfamate or [(1R,2S,4R)-4-{[5-({5-chloro-4-[(1S)-7-chloro-3,4-dihydro-1H-isochromen-1-yl]-2-thienyl}carbonyl)pyrimidin-4-yl]amino}-2-hydroxycyclopentyl]methyl sulfamate]", "values": [
      {"measurement": "Percent Inhibition", "value": 37, "unit": "%"},
      {"measurement": "IC50", "value": "100 to 1000", "unit": "nM"}
    ]},
    {"compound": "NS(=O)(=O)OC[C@H]1C[C@@H](Nc2ncncc2C(=O)c2cc([C@@H]3OCCc4ccc(Cl)cc43)c(Cl)s2)C[C@@H]1O", "note": "(single isomer, unassigned) [I-282b, [(1R,2S,4R)-4-{[5-({5-chloro-4-[(1R)-7-chloro-3,4-dihydro-1H-isochromen-1-yl]-2-thienyl}carbonyl)pyrimidin-4-yl]amino}-2-hydroxycyclopentyl]methyl sulfamate or [(1R,2S,4R)-4-{[5-({5-chloro-4-[(1S)-7-chloro-3,4-dihydro-1H-isochromen-1-yl]-2-thienyl}carbonyl)pyrimidin-4-yl]amino}-2-hydroxycyclopentyl]methyl sulfamate]", "values": [
      {"measurement": "Percent Inhibition", "value": 102, "unit": "%"},
      {"measurement": "IC50", "value": "< 10", "unit": "nM"}
    ]},
    {"compound": "NS(=O)(=O)OC[C@H]1C[C@@H](Nc2ncncc2C(=O)c2cc([C@@H]3NCCc4ccccc43)cs2)C[C@@H]1O", "note": "(single isomer, unassigned) [I-283a, [(1R,2S,4R)-2-hydroxy-4-{[5-({4-[(1R)-1,2,3,4-tetrahydroisoquinolin-1-yl]-2-thienyl}carbonyl)pyrimidin-4-yl]amino}cyclopentyl]methyl sulfamate or [(1R,2S,4R)-2-hydroxy-4-{[5-({4-[(1S)-1,2,3,4-tetrahydroisoquinolin-1-yl]-2-thienyl}carbonyl)pyrimidin-4-yl]amino}cyclopentyl]methyl sulfamate]", "values": [
      {"measurement": "Percent Inhibition", "value": 99, "unit": "%"},
      {"measurement": "IC50", "value": "< 10", "unit": "nM"}
    ]},
    {"compound": "NS(=O)(=O)OC[C@H]1C[C@@H](Nc2ncncc2C(=O)c2cc([C@@H]3NCCc4ccccc43)cs2)C[C@@H]1O", "note": "(single isomer, unassigned) [I-283b, [(1R,2S,4R)-2-hydroxy-4-{[5-({4-[(1R)-1,2,3,4-tetrahydroisoquinolin-1-yl]-2-thienyl}carbonyl)pyrimidin-4-yl]amino}cyclopentyl]methyl sulfamate or [(1R,2S,4R)-2-hydroxy-4-{[5-({4-[(1S)-1,2,3,4-tetrahydroisoquinolin-1-yl]-2-thienyl}carbonyl)pyrimidin-4-yl]amino}cyclopentyl]methyl sulfamate]", "values": [
      {"measurement": "Percent Inhibition", "value": 93, "unit": "%"},
      {"measurement": "IC50", "value": "10 to 100", "unit": "nM"}
    ]},
    {"compound": "CN1Cc2ccc(Cl)cc2[C@@H]1c1cc(C(=O)c2cncnc2N[C@@H]2C[C@H](COS(N)(=O)=O)[C@@H](O)C2)sc1Cl", "note": "(single isomer, unassigned) [I-284a, [(1R,2S,4R)-4-{[5-({5-chloro-4-[(1R)-6-chloro-2-methyl-2,3-dihydro-1H-isoindol-1-yl]-2-thienyl}carbonyl)pyrimidin-4-yl]amino}-2-hydroxycyclopentyl]methyl sulfamate or [(1R,2S,4R)-4-{[5-({5-chloro-4-[(1S)-6-chloro-2-methyl-2,3-dihydro-1H-isoindol-1-yl]-2-thienyl}carbonyl)pyrimidin-4-yl]amino}-2-hydroxycyclopentyl]methyl sulfamate]", "values": [
      {"measurement": "Percent Inhibition", "value": 49, "unit": "%"},
      {"measurement": "IC50", "value": "100 to 1000", "unit": "nM"}
    ]},
    {"compound": "CN1Cc2ccc(Cl)cc2[C@@H]1c1cc(C(=O)c2cncnc2N[C@@H]2C[C@H](COS(N)(=O)=O)[C@@H](O)C2)sc1Cl", "note": "(single isomer, unassigned) [I-284b, [(1R,2S,4R)-4-{[5-({5-chloro-4-[(1R)-6-chloro-2-methyl-2,3-dihydro-1H-isoindol-1-yl]-2-thienyl}carbonyl)pyrimidin-4-yl]amino}-2-hydroxycyclopentyl]methyl sulfamate or [(1R,2S,4R)-4-{[5-({5-chloro-4-[(1S)-6-chloro-2-methyl-2,3-dihydro-1H-isoindol-1-yl]-2-thienyl}carbonyl)pyrimidin-4-yl]amino}-2-hydroxycyclopentyl]methyl sulfamate]", "values": [
      {"measurement": "Percent Inhibition", "value": 99, "unit": "%"},
      {"measurement": "IC50", "value": "< 10", "unit": "nM"}
    ]},
    {"compound": "Cc1sc(C(=O)c2cncnc2N[C@@H]2C[C@H](COS(N)(=O)=O)[C@@H](O)C2)cc1[C@@H]1OCCc2cccnc21", "note": "(single isomer, unassigned) [I-285a, [(1R,2S,4R)-4-{[5-({4-[(8S)-5,8-dihydro-6H-pyrano[3,4-b]pyridin-8-yl]-5-methyl-2-thienyl}carbonyl)pyrimidin-4-yl]amino}-2-hydroxycyclopentyl]methyl sulfamate or [(1R,2S,4R)-4-{[5-({4-[(8R)-5,8-dihydro-6H-pyrano[3,4-b]pyridin-8-yl]-5-methyl-2-thienyl}carbonyl)pyrimidin-4-yl]amino}-2-hydroxycyclopentyl]methyl sulfamate]", "values": [
      {"measurement": "Percent Inhibition", "value": 101, "unit": "%"},
      {"measurement": "IC50", "value": "< 10", "unit": "nM"}
    ]},
    {"compound": "Cc1sc(C(=O)c2cncnc2N[C@@H]2C[C@H](COS(N)(=O)=O)[C@@H](O)C2)cc1[C@@H]1OCCc2cccnc21", "note": "(single isomer, unassigned) [I-285b, [(1R,2S,4R)-4-{[5-({4-[(8S)-5,8-dihydro-6H-pyrano[3,4-b]pyridin-8-yl]-5-methyl-2-thienyl}carbonyl)pyrimidin-4-yl]amino}-2-hydroxycyclopentyl]methyl sulfamate or [(1R,2S,4R)-4-{[5-({4-[(8R)-5,8-dihydro-6H-pyrano[3,4-b]pyridin-8-yl]-5-methyl-2-thienyl}carbonyl)pyrimidin-4-yl]amino}-2-hydroxycyclopentyl]methyl sulfamate]", "values": [
      {"measurement": "Percent Inhibition", "value": 44, "unit": "%"},
      {"measurement": "IC50", "value": "100 to 1000", "unit": "nM"}
    ]}
  ]
}
